Reference: patent US8791132B2, “Compounds and methods for treatment of hypertension” (Medivation Technologies, Inc., priority 2011, dated 2014)
Like-named read-outs stand apart in the source and are kept apart here.

Tests used:
[1] = target: T1, human recombinant adrenergic α2A receptor (Homo sapiens, UniProt P08913); assay: Radioligand binding, adrenergic α2A ([3H]MK-912); conditions: for Percentage inhibition of ligand binding, Adrenergic α2A / Percentage inhibition of ligand binding, Adrenergic α2A (0.1 μM): 0.1 µM
T1 construct: expressed in transfected cells; host or cells: insect Sf9 cells
T1 sequence (P08913 1-465): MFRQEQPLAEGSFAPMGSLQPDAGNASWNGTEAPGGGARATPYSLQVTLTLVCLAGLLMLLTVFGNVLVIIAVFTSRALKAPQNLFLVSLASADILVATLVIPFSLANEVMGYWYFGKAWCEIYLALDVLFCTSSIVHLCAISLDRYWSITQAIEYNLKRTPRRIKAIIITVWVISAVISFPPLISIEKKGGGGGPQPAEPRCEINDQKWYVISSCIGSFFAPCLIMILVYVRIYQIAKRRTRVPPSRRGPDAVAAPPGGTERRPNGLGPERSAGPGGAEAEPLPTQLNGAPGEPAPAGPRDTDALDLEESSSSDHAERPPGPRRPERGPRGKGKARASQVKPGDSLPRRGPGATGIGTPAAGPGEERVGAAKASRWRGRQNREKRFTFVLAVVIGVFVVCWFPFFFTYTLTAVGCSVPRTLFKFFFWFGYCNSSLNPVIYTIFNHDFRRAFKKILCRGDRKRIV
How it was run: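 Sf9 membranes, 1 nM [3H]MK-912, 60 min, 25 °C, Tris-HCl pH 7.4/MgCl2/EDTA buffer. NSB: 10 μM WB-4101. Filtration, counting; % inhibition of specific binding.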

[2] = target: T2, human recombinant adrenergic α2B receptor (Homo sapiens, UniProt P18089); assay: Radioligand binding, adrenergic α2B ([3H]Rauwolscine); conditions: for Ki: read-out: Ki α2B
T2 construct: expressed in transfected cells; host or cells: CHO-K1
T2 sequence (P18089 1-450): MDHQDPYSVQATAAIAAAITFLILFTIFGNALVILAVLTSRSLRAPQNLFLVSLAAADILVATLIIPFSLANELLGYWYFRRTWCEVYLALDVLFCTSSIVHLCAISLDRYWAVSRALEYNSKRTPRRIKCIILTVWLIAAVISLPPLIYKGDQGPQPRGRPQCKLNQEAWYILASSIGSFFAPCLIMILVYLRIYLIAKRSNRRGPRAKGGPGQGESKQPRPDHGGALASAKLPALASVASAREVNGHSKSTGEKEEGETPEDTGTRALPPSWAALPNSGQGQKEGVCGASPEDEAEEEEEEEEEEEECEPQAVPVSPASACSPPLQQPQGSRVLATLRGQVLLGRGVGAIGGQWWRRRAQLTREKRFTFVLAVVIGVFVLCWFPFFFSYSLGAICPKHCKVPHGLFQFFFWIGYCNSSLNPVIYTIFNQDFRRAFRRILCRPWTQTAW
How it was run: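 Readout: percent inhibition of specific [3H]Rauwolscine binding, measured by filtration and counting. Conditions: CHO-K1 cell-expressed receptor, 2.5 nM radioligand, 60 min, 25° C, Tris-HCl pH 7.4 buffer with MgCl2, EDTA, BSA. Non-specific binding: 10 μM Prazosin.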

[3] = target: T3, rat adrenergic α1B receptor (Rattus norvegicus, UniProt P15823); assay: Radioligand binding, adrenergic α1B ([3H]Prazosin); conditions: for Percentage inhibition of ligand binding, Adrenergic α1B (0.1 μM) / Percentage inhibition of ligand binding, Adrenergic α1B: 0.1 µM
T3 construct: rat adrenergic α1B receptor obtained from Wistar Rat liver; from tissue; host or cells: Wistar rat liver
T3 sequence (P15823 1-515): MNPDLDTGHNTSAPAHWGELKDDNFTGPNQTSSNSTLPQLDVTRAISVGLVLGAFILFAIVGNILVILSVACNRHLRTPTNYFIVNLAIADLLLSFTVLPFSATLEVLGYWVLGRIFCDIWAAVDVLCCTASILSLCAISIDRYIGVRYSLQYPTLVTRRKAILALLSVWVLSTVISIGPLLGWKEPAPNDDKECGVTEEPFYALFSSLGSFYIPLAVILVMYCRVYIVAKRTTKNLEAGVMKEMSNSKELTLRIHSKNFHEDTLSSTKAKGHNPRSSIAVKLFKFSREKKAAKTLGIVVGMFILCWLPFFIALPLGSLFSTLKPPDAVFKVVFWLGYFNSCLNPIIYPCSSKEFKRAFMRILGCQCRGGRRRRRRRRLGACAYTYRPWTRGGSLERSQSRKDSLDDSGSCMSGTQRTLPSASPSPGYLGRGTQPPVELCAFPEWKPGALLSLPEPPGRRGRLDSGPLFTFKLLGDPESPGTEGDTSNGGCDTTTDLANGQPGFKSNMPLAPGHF
How it was run: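 Specific binding, taken as total minus that remaining with 10 μM phentolamine, is measured after filtration and counting. Rat liver receptor preparation and 0.25 nM [3H]prazosin are incubated with compound in 50 mM Tris-HCl (pH 7.4, 0.5 mM EDTA) at 25° C for 60 min. Activity is reported as percent inhibition.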

[4] = read-out: Percentage inhibition of ligand binding, Adrenergic α2A (0.1 μM), compound at 0.1 μM, [3H]MK-912, repeat datapoints each shown
[5] = read-out: Percentage inhibition of ligand binding, Adrenergic α2B (0.03 μM), compound at 0.03 μM, [3H]Rauwolscine, repeat datapoints each shown
[6] = read-out: Percentage inhibition of ligand binding, Adrenergic α1B (0.1 μM), compound at 0.1 μM, [3H]Prazosin, repeat datapoints each shown
[7] = compound at 0.03 μM, [3H]Rauwolscine, repeat datapoints each shown, 0.03 µM
[8] = compound at 0.1 μM, [3H]Prazosin, repeat datapoints each shown
[9] = compound at 0.1 μM, [3H]MK-912, repeat assays, each datapoint shown
[10] = compound at 0.03 μM, [3H]Rauwolscine, repeat assays, each datapoint shown, 0.03 µM
[11] = compound at 0.1 μM, [3H]Prazosin, repeat assays, each datapoint shown
[12] = compound at 0.1 μM, [3H]MK-912, repeat datapoints each shown
[13] = compound at 0.1 μM, [3H]MK-912, repeat assays, each datapoint shown, read-out: Percentage inhibition of ligand binding, Adrenergic α2A
[14] = compound at 0.03 μM, [3H]Rauwolscine, repeat assays, each datapoint shown, read-out: Percentage inhibition of ligand binding, Adrenergic α2B
[15] = compound at 0.1 μM, [3H]Prazosin, repeat assays, each datapoint shown, read-out: Percentage inhibition of ligand binding, Adrenergic α1B

Compound: Cc1ccc2c(c1)c1c(n2CC(CC(C)(C)O)c2ccncc2)CCN(C)C1 (stereo not drawn) [II-226, 5-(2,8-dimethyl-1,2,3,4-tetrahydro-pyrido[4,3-b]indol-5-yl)-2-methyl-4-pyridin-4-yl-pentan-2-ol]
- inhibition at 0.1 µM [1, 4]: 4%
- inhibition at 0.03 µM [2, 5]: 40%
- inhibition at 0.1 µM [3, 6]: 15%

Compound: Cc1cnc2c(c1)c1c(n2CCc2ccc(C(N)=O)nc2)CCN2CCCC12 (stereo not drawn) [II-243, 5-[2-(9-methyl-1,2,3,4,5,10c-hexahydro-3a,6,7-triaza-cyclopenta[c]fluoren-6-yl)-ethyl]-pyridine-2-carboxylic acid amide]
- inhibition at 0.1 µM [1, 4]: 19%
- Percentage inhibition of ligand binding, Adrenergic α2B (0.03 μM) [2, 7]: 61%
- Ki [2]: 9.44 nM
- inhibition at 0.03 µM [2, 5]: 58%
- inhibition at 0.1 µM ([2]; read-out: Percentage inhibition of ligand binding, Adrenergic α2B (0.1 μM), compound at 0.1 μM, [3H]Rauwolscine, repeat datapoints each shown): 82%
- Percentage inhibition of ligand binding, Adrenergic α1B (0.1 μM) [3, 8]: 93%
- inhibition at 0.03 µM ([3]; read-out: Percentage inhibition of ligand binding, Adrenergic α1B (0.03 μM), compound at 0.03 μM, [3H]Prazosin, repeat datapoints each shown): 79%
- inhibition at 0.1 µM [3, 6]: 91%

Compound: Cc1ccc2c(c1)c1c(n2CC(O)c2cccnc2)CN(C)CC1 (single isomer, unassigned) [43a, 2-(2,6-dimethyl-1,2,3,4-tetrahydro-β-carbolin-9-yl)-1-pyridin-3-yl-ethanol]
- Percentage inhibition of ligand binding, Adrenergic α2A [1, 9]: 9%
- Percentage inhibition of ligand binding, Adrenergic α2B [2, 10]: 51%
- Percentage inhibition of ligand binding, Adrenergic α1B [3, 11]: 33%

Compound: Cc1cnc2c(c1)c1c(n2CC(O)c2ccc(C#N)nc2)CCN(C)C1 (single isomer, unassigned) [II-114b, 5-[2-(3,6-dimethyl-5,6,7,8-tetrahydro-1,6,9-triaza-fluoren-9-yl)-1-hydroxy-ethyl]-pyridine-2-carbonitrile]
- Percentage inhibition of ligand binding, Adrenergic α2A (0.1 μM) [1, 12]: −5%
- Percentage inhibition of ligand binding, Adrenergic α2B (0.03 μM) ([2]; compound at 0.03 μM, [3H]Rauwolscine, repeat datapoints each shown): 40%
- Percentage inhibition of ligand binding, Adrenergic α1B (0.1 μM) [3, 8]: 7%

Compound: Cc1ccc2c(c1)c1c(n2CC(O)c2ccc(F)cc2)CCN(C)C1 (single isomer, unassigned) [30b]
- Ki [1]: 14.2 nM
- inhibition at 0.03 µM ([1]; compound at 0.03 μM, [3H]MK-912, repeat assays, each datapoint shown, read-out: Percentage inhibition of ligand binding, Adrenergic α2A): 42%
- Percentage inhibition of ligand binding, Adrenergic α2A [1, 9]: 75%
- inhibition at 0.1 µM [1, 13]: 74%
- Percentage inhibition of ligand binding, Adrenergic α2B [2, 10]: 102%
- inhibition at 0.03 µM [2, 14]: 100%
- Ki [2]: 1.13 nM
- inhibition at 0.03 µM ([3]; compound at 0.03 μM, [3H]Prazosin, repeat assays, each datapoint shown, read-out: Percentage inhibition of ligand binding, Adrenergic α1B): 68%
- Percentage inhibition of ligand binding, Adrenergic α1B [3, 11]: 91%
- inhibition at 0.1 µM [3, 15]: 89%

Compound: CN1CCc2c(c3cc(C(F)(F)F)ccc3n2CC(O)c2cccnc2)C1 (single isomer, unassigned) [59a]
- inhibition at 0.1 µM [1, 13]: 18%
- Percentage inhibition of ligand binding, Adrenergic α2B [2, 10]: 15%
- inhibition at 0.1 µM [3, 15]: 11%

Compound: CN1CCc2c(c3ncccc3n2CC(C)(O)c2cccnc2)C1 (stereo not drawn) [II-126]
- inhibition at 0.1 µM [1, 4]: 4%
- inhibition at 0.03 µM [2, 5]: 4%
- inhibition at 0.1 µM [3, 6]: -4%

Compound: CN1CCc2c(c3cc(C(F)(F)F)ccc3n2CC(O)c2ccncc2)C1 (stereo not drawn) [compound 6, 2-(2-methyl-8-(trifluoromethyl)-3,4-dihydro-1H-pyrido[4,3-b]indol-5(2H)-yl)-1-(pyridin-4-yl)ethanol]
- inhibition at 0.1 µM [1, 13]: 2%
- inhibition at 0.03 µM [2, 14]: 62%
- inhibition at 0.1 µM [3, 15]: 8%

Compound: Cc1cnc2c(c1)c1c(n2CC(C)(O)c2ccc(C)nc2)CCN2CCCC12 (single isomer, unassigned) [148c]
- Percentage inhibition of ligand binding, Adrenergic α2A (0.1 μM) [1, 12]: −1%
- Percentage inhibition of ligand binding, Adrenergic α2B (0.03 μM) [2, 7]: 16%
- Percentage inhibition of ligand binding, Adrenergic α1B (0.1 μM) [3, 8]: 6%

Compound: Cc1cnc2c(c1)c1c(n2CC(C)(O)c2cccnc2)CCN(C)C1 (single isomer, unassigned) [II-99b]
- Percentage inhibition of ligand binding, Adrenergic α2A ([1]; 0.1 μM compound): 16%
- Percentage inhibition of ligand binding, Adrenergic α2B ([2]; 0.03 μM compound, 0.03 µM): 7%
- Percentage inhibition of ligand binding, Adrenergic α1B ([3]; 0.1 μM compound): 5%

Compound: Cc1ccc2c(c1)c1c(n2CC(O)c2cc[n+]([O-])cc2)CCN(C)C1 (stereo not drawn) [69a]
- inhibition at 0.1 µM [1, 13]: 11%
- inhibition at 0.03 µM [2, 14]: 10%
- inhibition at 0.1 µM [3, 15]: 4%

Compound: Cc1ccc2c(c1)c1c(n2CC(C)(O)c2cccnc2)C(O)CN(C)C1 (single isomer, unassigned) [II-151a]
- Percentage inhibition of ligand binding, Adrenergic α2A (0.1 μM) [1, 12]: 1%
- Percentage inhibition of ligand binding, Adrenergic α2B (0.03 μM) [2, 7]: 27%
- inhibition at 0.1 µM [3, 6]: 11%

Compound: CC1Cc2c(c3cc(Cl)ccc3n2CC(C)(O)c2cccnc2)CN1C (single isomer, unassigned) [II-147a, 1-(8-chloro-2,3-dimethyl-3,4-dihydro-1H-pyrido[4,3-b]indol-5(2H)-yl)-2-(pyridin-3-yl)propan-2-ol]
- Percentage inhibition of ligand binding, Adrenergic α2A (0.1 μM) [1, 12]: 57%
- Percentage inhibition of ligand binding, Adrenergic α2B (0.03 μM) [2, 7]: 102%
- Percentage inhibition of ligand binding, Adrenergic α1B (0.1 μM) [3, 8]: 32%

Compound: Cc1ccc2c(c1)c1c(n2CC(C)(O)c2ccncc2)CN(C)CC1 (single isomer, unassigned) [19a, 1-(2,6-dimethyl-1,2,3,4-tetrahydro-β-carbolin-9-yl)-2-pyridin-4-yl-propan-2-ol]
- Percentage inhibition of ligand binding, Adrenergic α2A [1, 9]: 21%
- Percentage inhibition of ligand binding, Adrenergic α2B [2, 10]: 75%
- inhibition at 0.1 µM [3, 15]: 75%

Compound: Cc1ccc2c(c1)c1c(n2CC(CCN)c2ccncc2)CCN(C)C1 (stereo not drawn) [II-231, 4-(2,8-dimethyl-1,2,3,4-tetrahydro-pyrido[4,3-b]indol-5-yl)-3-pyridin-4-yl-butylamine]
- inhibition at 0.1 µM [1, 4]: 9%
- inhibition at 0.03 µM [2, 5]: -2%
- inhibition at 0.1 µM [3, 6]: 11%
